Reference: US7714034B2, “Photopolymerizable dental materials with bisacylphosphine oxides as initiators” (Ivoclar Vivadent AG, priority 2006, dated 2010)

Assay: solubility of the photoinitiator
Type: physicochemical
Source text: The bisacylphosphine oxides of the formula (I) absorb in the UV region and also show an absorption greater than 400 nm, so that their photolysis and radical formation can be induced by irradiation with halogen lamps customary in the dental field or also with LED lamps. The bisacylphosphine oxides of the formula (I) contain polymerizable groups and can be incorporated into polymers e.g. by copolymerization. Moreover, the bisacylphosphine oxides according to the invention are very well soluble in polar organic solvents such as acetone, ethanol, acetonitrile or tetrahydrofuran (THF) or their mixtures with water, i.e. the solubility is at least 0.01 mmol/g. It is particularly advantageous that the bisacylphosphine oxides according to the invention show a better storage stability compared with known bisacrylphosphine oxides. The compounds are characterized by a high hydrolysis stability, i.e. they are not more than 15% hydrolyzed in a mixture of […]:H2O (60:40) at 42° C. in 60 days.
To prepare the model formulation, 0.022 mmol of the photoinitiator described in Example 1 were weighed into an analysis tube and made up to 1.00 g with the above composition and dissolved accompanied by slight heating. […]

C=CCOCCOCc1c(C)cc(C)c(C(=O)P(=O)(C(=O)c2c(C)cc(C)c(COCCOCC=C)c2C)c2ccccc2)c1C [BAPOmAOEM]
solubility compared with Irgacure 819: better solubility

Cc1cc(C)c(C(=O)P(=O)(C(=O)c2c(C)cc(C)cc2C)c2ccccc2)c(C)c1 [Irgacure819, bis-(2,4,6-trimethylbenzoyl)-phenylphosphine oxide]
maximum solubility (in the primer composition (DEBAMP/DHPAE/water)): ^5Irgacure 819 was used due to its low solubility in a concentration of 0.005 mmol/g (= maximum solubility)
